Assay results published in US8192962B2, “Processes for detecting toxic substances” (Daikin Industries, Ltd., priority 2001, dated 2012).

System: Genes belonging to other category
Assay: DNA chip mRNA expression in yeast, genes belonging to other category (Table 9)
Type: cell-based, Saccharomyces cerevisiae S288C
Protocol: Yeast (Saccharomyces cerevisiae S288C (α SUC2mal mel gap2 CUP1)) were incubated at 25° C. on YPD medium (yeast extract 1%, polypepton 2%, glucose 2%). One of toxic chemical substances was added to the cells at logarithmic growth phase, and the cells were further incubated for two hours. Cells were cultured without any chemical substance in the same condition, and were used as control. Concentrations of the chemical substances were defined to inhibit the growth of the yeast but not lead to death.
After completion of the incubation, the culture was centrifuged to collect the cells. To the cells, sodium acetate buffer (50 mM sodium acetate, 10 mM EDTA, 1% SDS) was added, and the mixture was shaken at 65° C. for five minutes, followed by returning to room temperature, and obtaining the supernatant, of which the procedures were repeated two times. To the supernatant, ½ amount of a solution of phenol/chloroform was added, and the mixture was centrifuged to give a supernatant, which was added with an equal amount of chloroform, and the mixture was centrifuged to give a supernatant. To the supernatant, an equal amount of isopropanol containing 0.3 M sodium acetate was added, and the mixture was allowed to stand at room temperature for 30 minutes, after which the mixture was centrifuged to give a sediment of the whole RNAs. Seventy % ethanol was added to the sediment, and the mixture was again centrifuged to give a sediment, which was then dried and dissolved in water. mRNA was isolated from the whole RNAs as followings. In view of the fact that a poly A chain is attached to the 3′ terminus of mRNA, a polynucleotide having a poly T structure which was immobilized on the surface of latex beads was used to trap the mRNA, and then the mRNA was washed and eluted with spine column (Oligotex-dT30<Super>mRNA Purification Kit, Takara). Reverse transcription of the mRNA was conducted with a reverse transcriptase (Super Script II Reverse Transcriptase; catalogue No. 18064-014, GibcoBRL) using fluorescence-labeled nucleotides to give cDNAs that were introduced with Cy3-dUTP or Cy5-dUTP during the reverse transcription.
The labeled cDNAs were dissolved in TE buffer (10mM Tris-HCl/1 mM EDTA, pH8.0), and the solution was dropped on the DNA chip containing the whole genes of yeast (DNA Chip Research Inc. Japan) so that the cDNAs were hybridized on the DNA chip at 65° C. for over 12 hours. The fluoresces intensity of the DNA chip was read with a scanner, and the ratio relative to the fluorescence intensity resulting from the absence of chemical substance was estimated as the following, which is shown in Tables 1 to 9: […]

C[S+](C)[O-] [(15), dimethylsulfoxide]
The level of expressed mRNA in the presence of chemical substance/The level of expressed mRNA in the absence of chemical substance (yeast gene YAR010C): 1.8
The level of expressed mRNA in the presence of chemical substance/The level of expressed mRNA in the absence of chemical substance (yeast gene YBL005W-A): 0.9
The level of expressed mRNA in the presence of chemical substance/The level of expressed mRNA in the absence of chemical substance (yeast gene YBL041W): 1.3
The level of expressed mRNA in the presence of chemical substance/The level of expressed mRNA in the absence of chemical substance (yeast gene YBL043W): 1.8
The level of expressed mRNA in the presence of chemical substance/The level of expressed mRNA in the absence of chemical substance (yeast gene YBR109C): 1.4
The level of expressed mRNA in the presence of chemical substance/The level of expressed mRNA in the absence of chemical substance (yeast gene YBR201W): 1.6
The level of expressed mRNA in the presence of chemical substance/The level of expressed mRNA in the absence of chemical substance (yeast gene YBR214W): 5.1
The level of expressed mRNA in the presence of chemical substance/The level of expressed mRNA in the absence of chemical substance (yeast gene YCL027W): 3.6
The level of expressed mRNA in the presence of chemical substance/The level of expressed mRNA in the absence of chemical substance (yeast gene YCR004C): 0.8
The level of expressed mRNA in the presence of chemical substance/The level of expressed mRNA in the absence of chemical substance (yeast gene YCR088W): 2.8
The level of expressed mRNA in the presence of chemical substance/The level of expressed mRNA in the absence of chemical substance (yeast gene YDL007W): 1.4
The level of expressed mRNA in the presence of chemical substance/The level of expressed mRNA in the absence of chemical substance (yeast gene YDL008W): 0.7
The level of expressed mRNA in the presence of chemical substance/The level of expressed mRNA in the absence of chemical substance (yeast gene YDL126C): 1.7
The level of expressed mRNA in the presence of chemical substance/The level of expressed mRNA in the absence of chemical substance (yeast gene YDL238C): 1.3
The level of expressed mRNA in the presence of chemical substance/The level of expressed mRNA in the absence of chemical substance (yeast gene YDR055W): 5.7
The level of expressed mRNA in the presence of chemical substance/The level of expressed mRNA in the absence of chemical substance (yeast gene YDR085C): 3.1
The level of expressed mRNA in the presence of chemical substance/The level of expressed mRNA in the absence of chemical substance (yeast gene YDR104C): 1.4
The level of expressed mRNA in the presence of chemical substance/The level of expressed mRNA in the absence of chemical substance (yeast gene YDR115W): 0.8
The level of expressed mRNA in the presence of chemical substance/The level of expressed mRNA in the absence of chemical substance (yeast gene YDR259C): 2.9
The level of expressed mRNA in the presence of chemical substance/The level of expressed mRNA in the absence of chemical substance (yeast gene YDR315C): 1.5
The level of expressed mRNA in the presence of chemical substance/The level of expressed mRNA in the absence of chemical substance (yeast gene YDR358W): 0.9
The level of expressed mRNA in the presence of chemical substance/The level of expressed mRNA in the absence of chemical substance (yeast gene YDR388W): 2.6
The level of expressed mRNA in the presence of chemical substance/The level of expressed mRNA in the absence of chemical substance (yeast gene YDR432W): 2.6
The level of expressed mRNA in the presence of chemical substance/The level of expressed mRNA in the absence of chemical substance (yeast gene YDR481C): 3.5
The level of expressed mRNA in the presence of chemical substance/The level of expressed mRNA in the absence of chemical substance (yeast gene YDR510W): 2.2
The level of expressed mRNA in the presence of chemical substance/The level of expressed mRNA in the absence of chemical substance (yeast gene YEL066W): 1.0
The level of expressed mRNA in the presence of chemical substance/The level of expressed mRNA in the absence of chemical substance (yeast gene YER107C): 0.7
The level of expressed mRNA in the presence of chemical substance/The level of expressed mRNA in the absence of chemical substance (yeast gene YER159C): 2.2
The level of expressed mRNA in the presence of chemical substance/The level of expressed mRNA in the absence of chemical substance (yeast gene YFL028C): 0.8
The level of expressed mRNA in the presence of chemical substance/The level of expressed mRNA in the absence of chemical substance (yeast gene YGL158W): 2.3
The level of expressed mRNA in the presence of chemical substance/The level of expressed mRNA in the absence of chemical substance (yeast gene YGL229C): 0.2
The level of expressed mRNA in the presence of chemical substance/The level of expressed mRNA in the absence of chemical substance (yeast gene YGR136W): 2.6
The level of expressed mRNA in the presence of chemical substance/The level of expressed mRNA in the absence of chemical substance (yeast gene YGR213C): 6.5
The level of expressed mRNA in the presence of chemical substance/The level of expressed mRNA in the absence of chemical substance (yeast gene YGR257C): 1.3
The level of expressed mRNA in the presence of chemical substance/The level of expressed mRNA in the absence of chemical substance (yeast gene YHR071W): 3.0
The level of expressed mRNA in the presence of chemical substance/The level of expressed mRNA in the absence of chemical substance (yeast gene YHR139C): 1.9
The level of expressed mRNA in the presence of chemical substance/The level of expressed mRNA in the absence of chemical substance (yeast gene YIL140W): 3.3
The level of expressed mRNA in the presence of chemical substance/The level of expressed mRNA in the absence of chemical substance (yeast gene YJL030W): 1.5
The level of expressed mRNA in the presence of chemical substance/The level of expressed mRNA in the absence of chemical substance (yeast gene YJL073W): 2.6
The level of expressed mRNA in the presence of chemical substance/The level of expressed mRNA in the absence of chemical substance (yeast gene YJL116C): 1.0
The level of expressed mRNA in the presence of chemical substance/The level of expressed mRNA in the absence of chemical substance (yeast gene YJR004C): 3.2
The level of expressed mRNA in the presence of chemical substance/The level of expressed mRNA in the absence of chemical substance (yeast gene YJR029W): 1.8
The level of expressed mRNA in the presence of chemical substance/The level of expressed mRNA in the absence of chemical substance (yeast gene YJR086W): 2.0
The level of expressed mRNA in the presence of chemical substance/The level of expressed mRNA in the absence of chemical substance (yeast gene YJR099W): 0.5
The level of expressed mRNA in the presence of chemical substance/The level of expressed mRNA in the absence of chemical substance (yeast gene YJR122W): 0.8
The level of expressed mRNA in the presence of chemical substance/The level of expressed mRNA in the absence of chemical substance (yeast gene YKL008C): 1.3
The level of expressed mRNA in the presence of chemical substance/The level of expressed mRNA in the absence of chemical substance (yeast gene YKL039W): 3.1
The level of expressed mRNA in the presence of chemical substance/The level of expressed mRNA in the absence of chemical substance (yeast gene YKL041W): 1.0
The level of expressed mRNA in the presence of chemical substance/The level of expressed mRNA in the absence of chemical substance (yeast gene YKL096W): 2.3
The level of expressed mRNA in the presence of chemical substance/The level of expressed mRNA in the absence of chemical substance (yeast gene YKL139W): 1.0
